Biological target: T1, human A1 adenosine receptors (Homo sapiens, UniProt P30542)
T1 construct: expressed in transfected cells; host or cells: CHO cells (hCHO-A1 clone)
T1 sequence (P30542 1-326): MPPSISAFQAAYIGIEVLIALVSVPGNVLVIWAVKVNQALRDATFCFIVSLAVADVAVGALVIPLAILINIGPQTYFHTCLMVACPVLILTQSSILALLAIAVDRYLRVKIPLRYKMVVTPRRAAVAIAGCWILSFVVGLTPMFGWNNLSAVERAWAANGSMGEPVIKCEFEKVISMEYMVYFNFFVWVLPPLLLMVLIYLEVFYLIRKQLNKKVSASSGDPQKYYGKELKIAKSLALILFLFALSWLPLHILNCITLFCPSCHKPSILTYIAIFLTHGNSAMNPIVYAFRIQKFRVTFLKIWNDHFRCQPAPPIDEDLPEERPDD
Experiment: Saturation binding of [3H]CCPA to hCHO-A1
Experimental: The hCHO-A1, hCHO-A2A and hCHO-A3 cell clones are grown adherently and maintained in Dulbecco's modified Eagle's medium with nutrient mixture F12, containing 10% fetal calf serum, penicillin (100 U/mL), streptomycin (100 μg/mL), L-glutamine (2 mM), geneticine (G418, 0.2 mg/mL) at 37° C. in 5% CO2/95% air (Klotz et al. Naunyn-Schmied. Arch Pharm. 1998, 357, 1-9). Cells are split two or three times weekly at a ratio of between 1:5 and 1:10. For membrane preparation the culture medium is removed. The cells are washed with PBS and scraped off T75 flasks in ice-cold hypotonic buffer (5 mM Tris HCl, 2 mM EDTA, pH 7.4). The cell suspension is homogenized with Polytron and the homogenate is spun for 10 min at 1,000×g. […] The protein concentration is determined according to a Bio-Rad method (Bradford, 1976) with bovine albumin as a standard reference.
To determine the effect of the compounds of the present invention on the binding to A1, A2A and A3 receptors, membranes from hCHO-A1, hCHO-A2A, hCHO-A3 are incubated in a buffer solution in the absence and in the presence of the examined compounds. […] Bound and free radioactivity are separated by filtering the assay mixture through Whatman GF/B glass fibre filters using a Micro-mate 196 cell harvester (Packard Instrument Company). The filter bound radioactivity was counted on Top Count Microplate Scintillation Counter (efficacy […]) with Micro 20. […]

Nc1scc(CN2CCC3(CC2)Oc2cccc(F)c2O3)c1C(=O)c1ccc(Cl)cc1 [Example 60, {2-Amino-4-(4-fluorospiro[benzo[d][1,3]-dioxole-2,4′-piperidine]-1′-ylmethyl)thiophen-3-yl}(4-chlorophenyl)methanone]
increase in the BMAX value of the agonist [3H]CCPA: about 6 fold

Source: patent US7897596B2, “Allosteric modulators of the A1 adenosine receptor” (King Pharmaceuticals Research & Development, Inc., priority 2006, dated 2011)
